Tests used:
[1] = system: normal human epidermal keratinocytes (HEKa cells); assay: IL-8 release from keratinocytes stimulated with IL-17, IL-22 and TNFα; type: cell-based; details: 16 hrs
Method: To test the foregoing hypothesis, the inventors devised an in vitro model for the inflammatory conditions prevalent in the skin of subjects with dandruff. The model involves in vitro tissue culture of normal human epidermal keratinocytes (HEKa cells). The cells were exposed to a combination of IL-17, TNFα and IL-22 to stimulate an inflammatory-type response, which response was measured by production of IL-8 by the keratinocytes and also by analysis of their general gene expression profile. Adult proliferating human epidermal karatinocytes (HEKa) (from Thermo Fisher Scientific) used at low passage (p3 or lower). Cells were cultured in keratinocyte maintenance medium KGM Gold (Lonza Group) containing all components of the bullet kit plus 70 μM calcium. For the assay, cells were plated in KGM Gold with all components of the bullet kit except hydrocortisone and gentamycin, supplemented with 70 μM calcium. […] After 16 hrs the cell culture medium was removed and the amount of IL-8 cytokine released from the keratinocyte cells was quantified using a DuoSet IL-8 ELISA kit (R&D Systems Ltd). The keratinocyte cells were lysed in RIPA buffer and the total amount of protein in each sample quantified using a Pierce BCA protein assay kit (Thermofisher Ltd). […] All treatments were run in triplicate and a mean and standard deviation value calculated, the results being illustrated in FIG. 3.

MCF7 cells = details: 13 μM myricetin vs DMSO vehicle control, FIGS. 2A and 2B; cited from earlier work
[2] = 25° C.; cited from earlier work

## O=c1c(O)c(-c2cc(O)c(O)c(O)c2)oc2cc(O)cc(O)c12 [Myricetin, myricetin]
[1]; 6.5 μg/ml myricetin, IL-17 200 ng/ml, IL-22 200 ng/ml, TNFa 10 ng/ml, p=0.0001
  inflammatory response to the cytokines (IL-8 release): marked inhibition
[1]; HEKa cells, IL-17, TNFα and IL-22 stimulation, FIG. 3
  production of IL-8 (inflammatory response): significant reduction
MCF7 cells
  effect on gene expression changes observed in dandruff scalp skin relative to healthy scalp skin: reverse some of the gene expression changes
[2]
  solubility in water: about 55 mg/L

Source: patent US20190231666A1, “ANTI-DANDRUFF COMPOSITION” (Conopco, Inc., d/b/a UNILEVER, priority 2016, published 2019)
